From the NIST ThermoML archive (doi:10.1016/j.jct.2016.08.026)

Assay: xn = mol fraction of the nth substance listed
Details: 101 kPa, Liquid, Pycnometric method

C=CC(=O)OC(C)(C)C [tert-butyl acrylate] + CC#N
mass density [kg/m3]
Details | 293.15 K | 298.15 K | 303.15 K | 308.15 K | 313.15 K | 318.15 K
x2 = 0 | 884.13 | 879.66 | 875.2 | 870.74 | 866.28 | 861.82
x2 = 0.0772 | 881.52 | 877.05 | 872.58 | 868.11 | 863.64 | 859.17
x2 = 0.1496 | 878.71 | 874.23 | 869.74 | 865.25 | 860.76 | 856.27
x2 = 0.2216 | 875.53 | 871.02 | 866.51 | 861.99 | 857.47 | 852.95
x2 = 0.2983 | 871.66 | 867.11 | 862.56 | 858 | 853.44 | 848.88
x2 = 0.3643 | 867.87 | 863.28 | 858.69 | 854.1 | 849.51 | 844.91
x2 = 0.4345 | 863.31 | 858.68 | 854.05 | 849.42 | 844.78 | 840.14
x2 = 0.5074 | 857.88 | 853.2 | 848.52 | 843.84 | 839.16 | 834.47
x2 = 0.5769 | 851.91 | 847.18 | 842.45 | 837.72 | 832.98 | 828.24
x2 = 0.6465 | 844.97 | 840.18 | 835.39 | 830.6 | 825.8 | 821
x2 = 0.7141 | 837.1 | 832.24 | 827.38 | 822.52 | 817.66 | 812.8
x2 = 0.7821 | 827.76 | 822.83 | 817.9 | 812.96 | 808.02 | 803.08
x2 = 0.8603 | 814.71 | 809.68 | 804.64 | 799.6 | 794.56 | 789.51
x2 = 0.9345 | 799.24 | 794.08 | 788.92 | 783.75 | 778.58 | 773.41

C=CC(=O)OCCCC [butyl 2-propenoate] + CC#N
mass density [kg/m3]
Details | 293.15 K | 298.15 K | 303.15 K | 308.15 K | 313.15 K | 318.15 K
x2 = 0 | 898.85 | 894.1 | 889.35 | 884.6 | 879.85 | 875.1
x2 = 0.061 | 896.58 | 891.84 | 887.1 | 882.36 | 877.62 | 872.87
x2 = 0.1168 | 894.23 | 889.49 | 884.75 | 880.01 | 875.26 | 870.51
x2 = 0.1832 | 891.06 | 886.31 | 881.56 | 876.81 | 872.05 | 867.29
x2 = 0.2571 | 887.05 | 882.28 | 877.51 | 872.73 | 867.95 | 863.17
x2 = 0.3094 | 883.86 | 879.07 | 874.28 | 869.49 | 864.69 | 859.89
x2 = 0.3825 | 878.86 | 874.05 | 869.23 | 864.41 | 859.59 | 854.77
x2 = 0.4563 | 873.07 | 868.23 | 863.39 | 858.55 | 853.7 | 848.85
x2 = 0.5282 | 866.62 | 861.75 | 856.88 | 852.01 | 847.13 | 842.25
x2 = 0.5779 | 861.58 | 856.69 | 851.79 | 846.89 | 841.99 | 837.09
x2 = 0.6483 | 853.47 | 848.54 | 843.6 | 838.66 | 833.72 | 828.79
x2 = 0.7299 | 842.32 | 837.34 | 832.35 | 827.36 | 822.37 | 817.38
x2 = 0.8143 | 828.2 | 823.15 | 818.1 | 813.05 | 807.99 | 802.93
x2 = 0.9182 | 805.7 | 800.53 | 795.36 | 790.19 | 785.01 | 779.83
